Where a name gives a salt, the structure may show the parent alone.

Data set [1] concerns human mesenchymal stem cells (hMSC). The data set is described as follows: MMPI cytotoxicity / growth of hMSC (trypan blue count). The format is cell-based. Particulars: 1 nM to 100 μM, 24 hours. As to the method: Passage 3 human adult bone marrow-derived mesenchymal stem cells (hMSCs, Tulane Center for Gene Therapy) were plated for a recovery phase of 24 hours at 37° C. and 5% CO2 in Alpha Minimum Essential Medium (αMEM, Sigma Aldrich) containing L-glutamine but without ribonucleosides or deoxyribonucleosides, 16.5% FBS, ˜2-4 mM L-glutamine, and penicillin and streptomycin as antibiotics. After the recovery phase, hMSCs were seeded into 6-well plates at a density of ˜60 cells/cm^2 within each well containing 2 mL of cell culture medium. Fresh cell culture medium was added every 3 days until the cells reached a confluency of approximately ˜70% at which media was changed to the conditioned forms necessary for observing MMPI cytotoxicity.
Upon reaching the desired confluency, each cell type was treated with the respective fresh media that was conditioned with a logarithmic panel of MMPI concentrations ranging from 1 nM to 100 μM. Specifically, each of the inhibitors were dissolved in an appropriate amount of 100% EtOH to generate 8 mM stock solutions from which an aliquot was used to produce serial dilutions with either SmBm or αMEM. The conditioned media was added to either hCASMCs or hMSCs and incubated for 24 hours. […] In order to quantify the levels of toxicity these inhibitors had on hCASMC and hMSC growth and viability, the cells were treated with trypan blue and counted via a hemocytometer. […]

Data set [2] has as its system human brain microvascular endothelial cells (hBMECs). The data set is described as follows: Endothelial cell migration and wound-healing assay. The format is cell-based. The conditions noted are these: at 3 μM and above, 24 hours. As to the method:
Culture of human brain microvascular endothelial cells: Human brain microvascular endothelial cells (hBMECs) were cultured with EGM-2MV Microvascular Endothelial Cell Medium-2 1 kit Bullet Kit, 5% fetal bovine serum, with or without treatments with synthetic matrix metalloproteinase inhibitors (MMPIs), at 37° C. and 5% CO2.
Endothelial cell migration and wound-healing assays: All experiments for this phase were performed in triplicate, and each consisted of […] wounded cultures utilizing serial concentrations of MMPIs: (1) an untreated control; (2) 100 μM MMPI; (3) 30 μM MMPI; (4) 10 μM MMPI; (5) 3 μM MMPI; (6) 1 μM MMPI; (7) 100 nM MMPI; (8) 10 nM MMPI; and (9) 1 nM MMPI. A 1 mL pipette tip was utilized to create a linear wound in a confluent monolayer of hBMECs. A fine, sterile needle was used to demarcate a cell-free “wounded field”. All cultures were photographed at that time. After 24 hours, the wounded cell culture was washed three times with phosphate buffered saline, fixed with 4% paraformaldehyde for 10-20 min, and stained with 0.1% crystal violet for 10-20 min. The stained culture was washed with ddH2O three times and left overnight to air dry. […] The density of the cell coverage in the wounded field was quantified utilizing the integrated morphometry analysis (IMA) (Metamorph System v.4.6r8, University Imaging Corp.). […]

The subject of data set [3] is human coronary artery smooth muscle cells (hCASMC). The data set is described as follows: MMPI cytotoxicity / growth of hCASMC (trypan blue count). The format is cell-based. Particulars: 24 hours. As to the method:
Passage 7 human coronary artery smooth muscle cells (hCASMCs) were plated in a 10 cm dish containing 20 mL of smooth muscle basal medium (SmBm, Lonza, Cat. No. CC-3182) supplemented with 0.1% insulin, 0.1% epidermal growth factor (rhEGF), 0.2% fibroblast growth factor-B (rhFGF-B), 0.1% gentamicin/amphotericin (antibiotics), and 5% FBS. The cells were incubated for 24 hours at 37° C. and 5% CO2, with 20 mL of fresh SmBm added the following day. Fresh SmBm was added every 2 days until the culture was ˜70-80% confluent and contained a minimum of 5 mitotic figures when viewed at 100× magnification. At this time, cells were then trypsinized and seeded into 24-well plates at an initial density of 3,500 cells/cm^2 and grown to ˜60% confluence prior to MMPI treatment.
Upon reaching the desired confluency, each cell type was treated with the respective fresh media that was conditioned with a logarithmic panel of MMPI concentrations ranging from 1 nM to 100 μM. Specifically, each of the inhibitors were dissolved in an appropriate amount of 100% EtOH to generate 8 mM stock solutions from which an aliquot was used to produce serial dilutions with either SmBm or αMEM. […] In order to quantify the levels of toxicity these inhibitors had on hCASMC and hMSC growth and viability, the cells were treated with trypan blue and counted via a hemocytometer. […]

The term melting point denotes the temperature of the solid-liquid transition. As to `NC(=O)N1C[C@H](NS(=O)(=O)c2ccc(Oc3ccccc3)cc2)[C@@H](S)C1` (racemic) [Example 1, (±)-N-Carbamoyl-trans-3-(4-phenoxybenzenesulfonamido)-4-mercaptopyrrolidine], the melting point was in the range of 170 to 171 °C. In addition, the hMSC growth curve result in data set [1] is given as “erratic results”. Further, the “inhibition on hBMEC wound healing” value in data set [2] is given as “pretty good inhibition”. Turning to `O=C(OCc1ccccc1)N1C[C@H](NS(=O)(=O)c2ccc(Oc3ccccc3)cc2)[C@@H](S)C1` (racemic) [Example 5, (±)-N-(Benzyloxycarbonyl)-trans-3-(4-phenoxybenzenesulfonamido)-4-mercaptopyrrolidine], the melting point lay in the range of 142 to 143 °C.

For `O=S(=O)(N[C@H]1CNC[C@@H]1S)c1ccc(Oc2ccccc2)cc1` (racemic) [Example 3, (±)-trans-3-(4-Phenoxybenzenesulfonamido)-4-mercaptopyrrolidine Hydrochloride], the hCASMC growth entry in data set [3] (lower concentrations, compared to identical concentrations of YHJ-6-286 and YHJ-7-23) was “increased hCASMC growth nearly two-fold”. In the case of `CN([C@H]1CN(C(N)=O)C[C@@H]1S)S(=O)(=O)c1ccc(Oc2ccccc2)cc1` (racemic) [Example 4, (±)-N-Carbamoyl-trans-3-(N-methyl-4-phenoxybenzenesulfonamido)-4-mercaptopyrrolidine], the hCASMC growth curve entry in data set [3] (1 nM to 100 μM) is “local minimum originating at 300 nM and minimizing at ˜30 nM”. In addition, the hMSC growth curve entry in data set [1] is given as “steadily increased as the concentration of YHJ-7-23 was decreased”.

The values are drawn from patent publication US8404866B2, “Substituted heterocyclic mercaptosulfonamide metalloprotease inhibitors” (Florida State University Research Foundation, priority 2008, dated 2013).
